The record followed here is patent publication US4902720A (priority 1988, dated 1990).

The test system of one data set is HSV-1 and HSV-2. It counts as cell-based. The settings on record: summary.
Another data set has as its system HSV-2 (333 strain). As to the kind of experiment: Plaque inhibition by HMB, HSV-2 333 strain in Vero cells (third series, Experiments 1M-1P). It counts as cell-based. The method, then:
In this experiment, 25 mg/ml HMB was tested on Vero cells infected with HSV-2. The virus control cultures, without HMB, had 705 plaque.
The number of plaque on the virus control was about 10 to 12 plaque.
In this experiment, 25 mg/ml, 20 mg/ml, and 15 mg/ml of HMB concentrations were tested on Vero cells infected with HSV-2. […] The experimental flasks had as many, or more, plaque as the control, with an average of 154 plaque for the control and 169 plaque for the HMB-treated flasks.
HMB was further tested at a concentration of 20 mg/ml of reinfected Vero cells.

The subject of another data set is RK-13 cells. The conditions noted are these: 25 mg/ml, 48 hours, 37° C. The method, then: (§1) Healthy confluent monolayer cell cultures were overlaid with 1 ml of the drug and incubated for 48 hours at 37° C. and then stained. Cell cultures with maintenance media were used as controls.
A further data set concerns Vero cells. The conditions noted are these: 25 mg/ml, 48 hours, 37° C. On the procedure:
as §1

Data set [1] deals with Flow 1000 cells (foreskin cells). The conditions noted are these: 25 mg/ml, 48 hours, 37° C. On the procedure:
as §1

Consider `C[N+](C)(C)CCCCCC[N+](C)(C)C` [HMB, hexamethonium bromide], for which the “in vitro replication of HSV-1 and HSV-2” value in the data set on HSV-1 and HSV-2 was “inhibit the in vitro replication of HSV-1 and HSV-2”. The “appearance of cell layer” value in the data set on HSV-2 (333 strain) (Exp. 1M, 25 mg/ml HMB) is listed as “thin cell layer”. The number of plaque with HSV-2 (333 strain) (Exp. 1M, 25 mg/ml HMB, control 705) is recorded as 142 plaque; in the data set with HSV-2 (333 strain) (Exp. 1O, 20 mg/ml HMB) it was “no plaque”; with HSV-2 (333 strain) (Exp. 1O, 25 mg/ml HMB, most likely due to toxicity), “no plaque”. Also, the inhibition of plaque result in the data set with HSV-2 (333 strain) (Exp. 1N, 20 mg/ml HMB, control about 10 to 12 plaque) is recorded as “complete inhibition of plaque”. Also, the effect on plaque result in the data set with HSV-2 (333 strain) (Exp. 1O, 15 mg/ml HMB) is recorded as “did not have any effect”. Also, in the data set on HSV-2 (333 strain) (Exp. 1O, 15 mg/ml HMB, control 154), the “average number of plaque” value turned out to be 169 plaque. The “toxicity to the monolayer” value in the data set on HSV-2 (333 strain) (Exp. 1O, 25 mg/ml HMB) is on record as “toxic to the monolayer”. In the data set on HSV-2 (333 strain) (Human alphaherpesvirus 2, Vero, Exp. 1M, 25 mg/ml HMB), this molecule showed an inhibition at 25000 µg/mL of 80%. This molecule also returned an inhibition at 20000 µg/mL in the data set on HSV-2 (333 strain) (Human alphaherpesvirus 2, Vero, Exp. 1P, 20 mg/ml HMB) of 91%. The toxicity result is given as “slight toxicity” in the data set with RK-13 cells, “no toxicity” with Vero cells and “no toxicity” in data set [1].

In general, inhibition refers to the change of the read-out against control, counted positive when it falls.
